Data on 15 compounds can be found in PubChem BioAssay (NCI).

Holding throughout (assay): growth of human tumour cells (NCI), 48 h
Test [1] has as its system SK-MEL-2 melanoma.
In test [2] the test system is HT29 colon.
The test system of test [3] is SF-295 CNS.
In test [4] the test system is M14 melanoma.
Test [5] deals with SF-268 CNS.
Test [6] deals with SK-MEL-28 melanoma.
For test [7], the system named is RXF 393 renal.
In test [8] the test system is A498 renal.

Each structure is given as a SMILES string.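 Tested at 5 concentrations; 48 h exposure; 96-well plates; endpoints linearly interpolated, else capped at highest concentration. TGI denotes the concentration required for complete inhibition of growth.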

As for `CCCN(CCC)c1c([N+](=O)[O-])cc(C(=O)N(CC)CC)cc1[N+](=O)[O-]`, the TGI in test [1] was 43.5 µM; in test [2] it was above 100 µM; in test [3] it was above 100 µM; in test [4] it was 79.5 µM; in test [5] it was above 100 µM; in test [6], 64.6 µM. Moreover, the TGI in test [7] was determined as 63 µM.
For the compound `COc1cc(OC)c(OC)cc1/C=N/NC(=O)N/N=C/c1cc(OC)c(OC)cc1OC`, the TGI in test [1], in test [2], in test [8], in test [3], in test [4] and in test [5] was above 100 µM in each case. Besides, the TGI in test [6] is above 100 µM.
Turning to `COC(=N)c1csc(C2OC(CO)C(O)C2O)n1` (stereo not given), the TGI in test [1], in test [2], in test [8], in test [3], in test [4] and in test [5] was above 100 µM throughout. The compound further gave a TGI in test [6] above 100 µM.
As for `O=S(=O)(OI(OI(OS(=O)(=O)C(F)(F)F)c1ccccc1)c1ccccc1)C(F)(F)F`, the TGI was above 100 µM in test [1]; above 100 µM in test [8]; above 100 µM in test [3]; above 100 µM in test [4]; above 100 µM in test [5]; 73.7 µM in test [7].
Take `CCCCCCCCc1cc2c(O)c(c1)Cc1cc(CCCCCCCC)cc(c1O)Cc1cc(CCCCCCCC)cc(c1O)Cc1cc(CCCCCCCC)cc(c1O)Cc1cc(CCCCCCCC)cc(c1O)Cc1cc(CCCCCCCC)cc(c1O)C2`: the TGI in test [1], in test [2], in test [8], in test [3], in test [5] and in test [6] was above 100 µM throughout.
On to `O=C1C=C(c2c(O)ccc3ccccc23)c2cc(O)ccc2C1=O`, for which the TGI is 36.8 µM in test [1]; 47.9 µM in test [2]; 34.9 µM in test [3]; 29.9 µM in test [4]; 32.6 µM in test [5]; 36 µM in test [6]. The TGI in test [7] stood at 29.1 µM.
In the case of `CCC(C)(C)n1c(C)nc2c1C(=O)c1ccccc1C2=O`, the TGI is 42.3 µM in test [1]; above 100 µM in test [2]; above 100 µM in test [3]; above 100 µM in test [4]; above 100 µM in test [5]; above 100 µM in test [6]. Further, the TGI in test [7] is 59.4 µM.
Take `c1ccc2c(c1)CCc1c(-c3ccncc3)n[nH]c1-2`: the TGI in test [1] was 38.4 µM; in test [2] it was above 100 µM; in test [8] it was 79.8 µM; in test [3] it was above 100 µM; in test [4], 47.9 µM; in test [5] it was above 100 µM. In test [6], this compound yielded a TGI of 62.8 µM.
For the compound `CC[C@@H]1NC(C(=O)OC)Cc2c1[nH]c1ccccc21` (stereo not given in full), the TGI in test [1], in test [2], in test [8], in test [3], in test [4] and in test [6] was above 100 µM in each case.
In the case of `COc1cc(C[P+](c2ccccc2)(c2ccccc2)c2ccccc2)cc(OC)c1OC`, the TGI in test [1], in test [2], in test [3], in test [4], in test [5] and in test [6] was above 100 µM throughout. This compound displayed a TGI in test [7] above 100 µM.
In the case of `CC1=C(C(=O)Nc2ccccc2)C(c2ccc(Cl)c(Cl)c2)C(C(=O)Nc2ccccc2)=C(C)N1`, the TGI amounted to 24.6 µM in test [2]; 33.4 µM in test [8]; 25.5 µM in test [3]; 25.1 µM in test [4]; 24.9 µM in test [5]; 25.7 µM in test [6]. For the same compound, the TGI in test [7] was 21.7 µM.
For the compound `CCCCCCCCCCCC[N+]12CC[N+](CCN)(CC1)CC2`, the TGI in test [1], in test [2], in test [3], in test [4], in test [5] and in test [6] was above 100 µM each time. The same compound came in with a TGI in test [7] of 18.1 µM.
Consider `CN(C)CCNC(=O)Cc1ccccc1Nc1c(Cl)cccc1Cl`, for which the TGI was found to be 23.5 µM in test [2]; 30.1 µM in test [3]; 33.9 µM in test [4]; 36.2 µM in test [5]; 33.7 µM in test [6]; 31.9 µM in test [7].
With `Nc1c(S(=O)(=O)c2ccc(Cl)cc2)c2nc3ccccc3nc2n2ccnc12`, the TGI in test [1], in test [2], in test [3], in test [4], in test [5] and in test [6] was above 100 µM in each case.
With `CN1Nc2ccccc2CC1=O`, the TGI in test [1], in test [2], in test [8], in test [3], in test [4] and in test [5] was above 100 µM throughout. In addition, the TGI in test [6] was above 100 µM.
